Patent US8575106B2, “Cosmetic uses of modified stressed yeast extracts and related compositions” (Avon Products, Inc., priority 2009, dated 2013)

Assays:
B16 melanoma cells = experiment: Calcium influx into B16 melanoma cells (Fluo-4 NW Calcium Assay, Thapsigargin-stimulated); format: cell-based, mouse; details: 100 μM 2-APB, area under curve of calcium influx peak vs vehicle control
Description: Modified yeast peptide fractions comprising a zinc-complexed peptide comprising SEQ ID NO:1 were tested in vitro for the ability to inhibit calcium influx into pigment-producing cells. An experiment was designed to measure intracellular calcium in B16 melanoma cells using Fluo-4 NW Calcium Assay Kits (Invitrogen) as per manufacturer's instructions. B16 mouse melanoma cell lines (ATCC, cat. #: CRL-6475) were grown in 96-well tissue culture treated dishes in growth medium. Prior to calcium treatment, growth medium from the B16 cell cultures was removed and 100 μL of the dye loading solution was added quickly to each well of a 96-well plate. Plates were incubated at 37° C. for 30 minutes, then at room temperature for an additional 30 minutes. Dye buffer was removed and plates were washed once with 1×PBS and replaced with an assay buffer that contains calcium (and was formed according to the manufacturer's directions) along with a test compound. […]
Fluorescence was measured using a micro-plate reader at excitation/emission wavelengths of 485 nm/530 nm, respectively. The reader was set to read florescence every 30 seconds for a period of 5 minutes. […] The fluorescence micro-plate reader was set to take fluorescence measurements every 30 seconds for a period of 30 minutes, again at excitation/emission wavelengths of 485 nm/530 nm, respectively. […]

[1] = test system: B16 mouse melanoma cell lines; experiment: Melanin synthesis in B16 cells, normalized to cell viability (MTT); format: cell-based; details: 100 μM 2-APB, 7 days, relative to control
Description: Next, the effects of 2-APB and modified peptide fractions having a zinc-complexed peptide comprising SEQ ID NO:1 on melanin synthesis were examined in B16 cells. B16 mouse melanoma cell lines (ATCC, cat. #: CRL-6475) were grown in 96-well tissue culture treated dishes (Falcon) and treated with a test compound to determine its ability to modulate pigment formation (melanin synthesis). Specifically, cells were exposed to 100 μM 2-APB or modified yeast peptide fractions comprising different concentrations of zinc-complexed peptide comprising SEQ ID NO:1, including 1% and 0.1% zinc-complexed peptide, for seven (7) days. Following the treatment period, the level of melanin synthesized was quantified using a Packard micro-plate reader at 540 nm.
After quantifying the amount of melanin synthesized, cell viability was determined using the MTT conversion method. […] After melanin synthesis quantification, the cultures were exposed to MTT dye solution with a concentration of 1 mg/ml for three hours. […] MTT dye uptake and conversion by viable cells was determined by measuring the extracted formazan at 570 nm using a Packard micro-plate reader.
After normalizing to cell viability, total pigmentation then was calculated, and expressed as a percent activity of control. […]

SMILES: NCCOB(c1ccccc1)c1ccccc1 [2-APB, 2-aminoethyl diphenylborate]
- inhibition of calcium entry into the cells (B16 melanoma cells): 86%
- inhibition of melanin synthesis [1]: 77%
